In ChEMBL document CHEMBL1641589, “Phosphoramidate pronucleotides of cytostatic 6-aryl-7-deazapurine ribonucleosides” (Bioorg Med Chem, 2011):

System: not listed separately
Assay: Chemical stability of the compound assessed as specific activity per ug at 30 uM after 30 mins in presence of purified carboxylesterase 2
Format: physicochemical
Settings: isolated protein, 0.5 h

Stability | Structure (SMILES)
0 pmol/min | COC(=O)[C@H](C)NP(=O)(OC[C@H]1O[C@@H](n2ccc3c(-c4ccsc4)ncnc32)[C@H](O)[C@@H]1O)Oc1ccccc1 (stereo not given in full)

System: not listed separately
Assay: Chemical stability of the compound assessed as specific activity per ug at 30 uM after 30 mins in presence of purified carboxylesterase 1
Format: physicochemical
Settings: isolated protein, 0.5 h

Stability | Structure (SMILES)
167 pmol/min | COC(=O)[C@H](C)NP(=O)(OC[C@H]1O[C@@H](n2ccc3c(-c4ccsc4)ncnc32)[C@H](O)[C@@H]1O)Oc1ccccc1 (stereo not given in full)

System: not listed separately
Assay: Chemical stability of the compound assessed as specific activity per ug at 30 uM after 30 mins in presence of purified cathepsin A
Format: physicochemical
Settings: 0.5 h

Stability | Structure (SMILES)
1496 pmol/min | COC(=O)[C@H](C)NP(=O)(OC[C@H]1O[C@@H](n2ccc3c(-c4ccsc4)ncnc32)[C@H](O)[C@@H]1O)Oc1ccccc1 (stereo not given in full)

System: not listed separately
Assay: Permeability from basolateral to apical side of human Caco2 cells at 10 uM after 60 to 120 mins by HPLC analysis
Format: ADME, cell-based
Settings: Caco-2

Papp B→A at 10 µM | Structure (SMILES)
9.75 ×10⁻⁶ cm/s | COC(=O)[C@H](C)NP(=O)(OC[C@H]1O[C@@H](n2ccc3c(-c4cccs4)ncnc32)[C@H](O)[C@@H]1O)Oc1ccccc1 (stereo not given in full)
9.62 ×10⁻⁶ cm/s | CCOC(=O)[C@H](C)NP(=O)(OC[C@H]1O[C@@H](n2ccc3c(-c4cccs4)ncnc32)[C@H](O)[C@@H]1O)Oc1ccccc1 (stereo not given in full)

System: not listed separately
Assay: Efflux ratio of permeability from basolateral to apical side over apical to basolateral side in human Caco2 cells at 10 uM after 60 to 120 mins by HPLC analysis
Format: ADME, cell-based
Settings: Caco-2

efflux ratio at 10 µM | Structure (SMILES)
13.3 | COC(=O)[C@H](C)NP(=O)(OC[C@H]1O[C@@H](n2ccc3c(-c4cccs4)ncnc32)[C@H](O)[C@@H]1O)Oc1ccccc1 (stereo not given in full)
12.7 | CCOC(=O)[C@H](C)NP(=O)(OC[C@H]1O[C@@H](n2ccc3c(-c4cccs4)ncnc32)[C@H](O)[C@@H]1O)Oc1ccccc1 (stereo not given in full)

System: not listed separately
Assay: Permeability from apical to basolateral side of human Caco2 cells at 10 uM after 60 to 120 mins by HPLC analysis
Format: ADME, cell-based
Settings: Caco-2

Papp A→B at 10 µM | Structure (SMILES)
0.74 ×10⁻⁶ cm/s | COC(=O)[C@H](C)NP(=O)(OC[C@H]1O[C@@H](n2ccc3c(-c4cccs4)ncnc32)[C@H](O)[C@@H]1O)Oc1ccccc1 (stereo not given in full)
0.76 ×10⁻⁶ cm/s | CCOC(=O)[C@H](C)NP(=O)(OC[C@H]1O[C@@H](n2ccc3c(-c4cccs4)ncnc32)[C@H](O)[C@@H]1O)Oc1ccccc1 (stereo not given in full)

System: not listed separately
Assay: Permeability from apical to basolateral side at 10 uM after 60 to 120 mins by HPLC analysis
Format: ADME
Settings: not told

Papp A→B at 10 µM | Structure (SMILES)
35.1 ×10⁻⁶ cm/s | COC(=O)[C@H](C)NP(=O)(OC[C@H]1O[C@@H](n2ccc3c(-c4cccs4)ncnc32)[C@H](O)[C@@H]1O)Oc1ccccc1 (stereo not given in full)
33.8 ×10⁻⁶ cm/s | CCOC(=O)[C@H](C)NP(=O)(OC[C@H]1O[C@@H](n2ccc3c(-c4cccs4)ncnc32)[C@H](O)[C@@H]1O)Oc1ccccc1 (stereo not given in full)

System: HepG2
Assay: Cytotoxicity against human HepG2 cells after 3 days by XTT assay
Format: functional, cell-based
Settings: HepG2, 72 h

Structure (SMILES) | IC50
COC(=O)[C@H](C)NP(=O)(OC[C@H]1O[C@@H](n2ccc3c(-c4cccs4)ncnc32)[C@H](O)[C@@H]1O)Oc1ccccc1 (stereo not given in full) | 1.41 µM
CCOC(=O)[C@H](C)NP(=O)(OC[C@H]1O[C@@H](n2ccc3c(-c4cccs4)ncnc32)[C@H](O)[C@@H]1O)Oc1ccccc1 (stereo not given in full) | 1.53 µM
COC(=O)[C@H](C)NP(=O)(OC[C@H]1O[C@@H](n2ccc3c(-c4ccsc4)ncnc32)[C@H](O)[C@@H]1O)Oc1ccccc1 (stereo not given in full) | > 10 µM

System: not listed separately
Assay: Cytotoxicity against human HeLaS3 cells after 3 days by XTT assay
Format: functional, cell-based
Settings: HeLa S3, 72 h

Structure (SMILES) | IC50
COC(=O)[C@H](C)NP(=O)(OC[C@H]1O[C@@H](n2ccc3c(-c4cccs4)ncnc32)[C@H](O)[C@@H]1O)Oc1ccccc1 (stereo not given in full) | 2.51 µM
CCOC(=O)[C@H](C)NP(=O)(OC[C@H]1O[C@@H](n2ccc3c(-c4cccs4)ncnc32)[C@H](O)[C@@H]1O)Oc1ccccc1 (stereo not given in full) | 5.93 µM
COC(=O)[C@H](C)NP(=O)(OC[C@H]1O[C@@H](n2ccc3c(-c4ccsc4)ncnc32)[C@H](O)[C@@H]1O)Oc1ccccc1 (stereo not given in full) | > 10 µM

System: HL-60
Assay: Cytotoxicity against human HL60 cells after 5 days by SRB assay
Format: functional
Settings: HL-60, 120 h

Structure (SMILES) | GI50
COC(=O)[C@H](C)NP(=O)(OC[C@H]1O[C@@H](n2ccc3c(-c4cccs4)ncnc32)[C@H](O)[C@@H]1O)Oc1ccccc1 (stereo not given in full) | > 10 µM
CCOC(=O)[C@H](C)NP(=O)(OC[C@H]1O[C@@H](n2ccc3c(-c4cccs4)ncnc32)[C@H](O)[C@@H]1O)Oc1ccccc1 (stereo not given in full) | > 10 µM
COC(=O)[C@H](C)NP(=O)(OC[C@H]1O[C@@H](n2ccc3c(-c4ccsc4)ncnc32)[C@H](O)[C@@H]1O)Oc1ccccc1 (stereo not given in full) | > 10 µM

System: CCRF-CEM
Assay: Cytotoxicity against human CCRF-CEM cells after 3 days by XTT assay
Format: functional, cell-based
Settings: 72 h

Structure (SMILES) | IC50
COC(=O)[C@H](C)NP(=O)(OC[C@H]1O[C@@H](n2ccc3c(-c4cccs4)ncnc32)[C@H](O)[C@@H]1O)Oc1ccccc1 (stereo not given in full) | 8.47 µM
CCOC(=O)[C@H](C)NP(=O)(OC[C@H]1O[C@@H](n2ccc3c(-c4cccs4)ncnc32)[C@H](O)[C@@H]1O)Oc1ccccc1 (stereo not given in full) | > 10 µM
COC(=O)[C@H](C)NP(=O)(OC[C@H]1O[C@@H](n2ccc3c(-c4ccsc4)ncnc32)[C@H](O)[C@@H]1O)Oc1ccccc1 (stereo not given in full) | > 10 µM

System: DU-145
Assay: Cytotoxicity against human DU145 cells after 5 days by SRB assay
Format: functional
Settings: DU-145, 120 h

Structure (SMILES) | GI50
COC(=O)[C@H](C)NP(=O)(OC[C@H]1O[C@@H](n2ccc3c(-c4cccs4)ncnc32)[C@H](O)[C@@H]1O)Oc1ccccc1 (stereo not given in full) | 3.23 µM
CCOC(=O)[C@H](C)NP(=O)(OC[C@H]1O[C@@H](n2ccc3c(-c4cccs4)ncnc32)[C@H](O)[C@@H]1O)Oc1ccccc1 (stereo not given in full) | > 10 µM
COC(=O)[C@H](C)NP(=O)(OC[C@H]1O[C@@H](n2ccc3c(-c4ccsc4)ncnc32)[C@H](O)[C@@H]1O)Oc1ccccc1 (stereo not given in full) | > 10 µM

System: not listed separately
Assay: Cytotoxicity against human Hs578 cells after 5 days by SRB assay
Format: functional
Settings: Hs578, 120 h

Structure (SMILES) | GI50
COC(=O)[C@H](C)NP(=O)(OC[C@H]1O[C@@H](n2ccc3c(-c4cccs4)ncnc32)[C@H](O)[C@@H]1O)Oc1ccccc1 (stereo not given in full) | 6.59 µM
CCOC(=O)[C@H](C)NP(=O)(OC[C@H]1O[C@@H](n2ccc3c(-c4cccs4)ncnc32)[C@H](O)[C@@H]1O)Oc1ccccc1 (stereo not given in full) | 9.6 µM
COC(=O)[C@H](C)NP(=O)(OC[C@H]1O[C@@H](n2ccc3c(-c4ccsc4)ncnc32)[C@H](O)[C@@H]1O)Oc1ccccc1 (stereo not given in full) | > 10 µM

System: NCI-H23
Assay: Cytotoxicity against human NCI-H23 cells after 5 days by SRB assay
Format: functional
Settings: NCI-H23, 120 h

Structure (SMILES) | GI50
COC(=O)[C@H](C)NP(=O)(OC[C@H]1O[C@@H](n2ccc3c(-c4cccs4)ncnc32)[C@H](O)[C@@H]1O)Oc1ccccc1 (stereo not given in full) | 6.79 µM
CCOC(=O)[C@H](C)NP(=O)(OC[C@H]1O[C@@H](n2ccc3c(-c4cccs4)ncnc32)[C@H](O)[C@@H]1O)Oc1ccccc1 (stereo not given in full) | 10.9 µM
COC(=O)[C@H](C)NP(=O)(OC[C@H]1O[C@@H](n2ccc3c(-c4ccsc4)ncnc32)[C@H](O)[C@@H]1O)Oc1ccccc1 (stereo not given in full) | > 10 µM

System: HCT-116
Assay: Cytotoxicity against human HCT116 cells after 5 days by SRB assay
Format: functional
Settings: HCT-116, 120 h

Structure (SMILES) | GI50
COC(=O)[C@H](C)NP(=O)(OC[C@H]1O[C@@H](n2ccc3c(-c4cccs4)ncnc32)[C@H](O)[C@@H]1O)Oc1ccccc1 (stereo not given in full) | 6.22 µM
CCOC(=O)[C@H](C)NP(=O)(OC[C@H]1O[C@@H](n2ccc3c(-c4cccs4)ncnc32)[C@H](O)[C@@H]1O)Oc1ccccc1 (stereo not given in full) | > 10 µM
COC(=O)[C@H](C)NP(=O)(OC[C@H]1O[C@@H](n2ccc3c(-c4ccsc4)ncnc32)[C@H](O)[C@@H]1O)Oc1ccccc1 (stereo not given in full) | > 10 µM
